By IC50 is commonly meant the concentration needed to halve the response being measured. As a reminder, the EC50 is the concentration at which the effect is half-maximal.

Results on 20 compounds are retold here after ChEMBL document CHEMBL4130392, “Eugenol derived immunomodulatory molecules against visceral leishmaniasis” (Eur J Med Chem, 2017).

Data set [1] in a line: Drug uptake in mouse RAW264.7 cells assessed as retention time at 10 ug/ml incubated for 3 hrs by HPLC method. The data set is classed as ADME, cell-based. As to conditions: raw264.7, 3 h.
The test system of another data set is RAW264.7. Description: Cytotoxicity against mouse RAW264.7 cells after 48 hrs by MTT assay. Format: cell-based. As to conditions: RAW264.7, 48 h. For orientation: Tetrazolium dyes change colour on reduction, which living cells bring about.
Data set [2] can be described thus: Therapeutic index, ratio of IC50 for mouse RAW264.7 cells to IC50 for Leishmania donovani MHOM/IN/AG/83 promastigotes. Format: toxicity. To be noted: read-out: Ratio IC50.
Data set [3] has as its system Leishmania donovani. Description: Antileishmanial activity against Leishmania donovani MHOM/IN/AG/83 promastigotes after 48 hrs by MTT assay. As to conditions: MHOM/IN/AG/83, 48 h. The data set is classed as functional, organism-based.
The nature of data set [4]: Drug uptake in mouse RAW264.7 cells assessed as ratio of drug level (cell lysate)/(drug level (supernatant) + drug level (cell lysate) at 10 ug/ml incubated for 3 hrs by HPLC method. Format: ADME, cell-based. As to conditions: raw264.7, 3 h.
For data set [5], the system named is Leishmania donovani. In words: Antileishmanial activity against Leishmania donovani MHOM/IN/AG/83 amastigotes infected in BALB/c mouse peritoneal macrophages after 42 hrs by Giemsa staining-based microscopic analysis. The data set is classed as functional, organism-based. To be noted: MHOM/IN/AG/83, 42 h.
Data set [6] can be described thus: Therapeutic index, ratio of EC50 for BALB/c mouse peritoneal macrophages to EC50 for Leishmania donovani MHOM/IN/AG/83 amastigotes. To be noted: read-out: Ratio EC50. Format: toxicity.
Data set [7] has as its system Peritoneal macrophage. Description: Cytotoxicity against BALB/c mouse peritoneal macrophages after 48 hrs by MTT assay. The data set is classed as cell-based.
The subject of data set [8] is Peritoneal macrophage. In words: Induction of NO generation in Leishmania donovani MHOM/IN/AG/83 infected BALB/c mouse peritoneal macrophages assessed as nitrite levels after 48 hrs by Griess assay relative to untreated control. Format: functional.

Consider `C=CCc1ccc(OC(=O)COc2ccccc2)c(OC)c1`, for which the Retention_time in [1] is listed as 3.867 min. Also, the IC50 with RAW264.7 stood at 396 µM; with Leishmania donovani [3] it was 28.9 µM. Moreover, the selectivity ratio in data set [2] was 13.7; in [6], 55.1. Besides, the Ratio in data set [4] was 0.73. For the same compound, the results for the EC50 in the data set with Leishmania donovani [5] and in the data set with Peritoneal macrophage [7] were 7.17 µM and 391 µM, respectively. Also, the Activity result in the data set on Peritoneal macrophage [8] is “Dose-dependent effect”; with Peritoneal macrophage [8] (record 2), 39.02 µM.
For the compound `C=CCc1ccc(OCCCCCCCC)c(OC)c1`, the IC50 with RAW264.7 turned out to be 357 µM; in the data set with Leishmania donovani [3], 62.3 µM. The selectivity ratio came to 5.85 in data set [2] and 8.3 in data set [6]. Besides, the EC50 in the data set with Leishmania donovani [5] is 48.7 µM; in the data set on Peritoneal macrophage [7], 393 µM. Moreover, the values for the Activity entry in the data set on Peritoneal macrophage [8] and in the data set on Peritoneal macrophage [8] (record 2) were “Dose-dependent effect” and 26.01 µM, respectively.
As for `C=CCc1ccc(OC(=O)CCCCC)c(OC)c1`, the IC50 was determined as 517 µM in the data set on RAW264.7 and 162 µM in the data set on Leishmania donovani [3]. Also, the selectivity ratio turned out to be 3.21 in data set [2] and 4.76 in data set [6]. Further, the EC50 in the data set on Leishmania donovani [5] turned out to be 101 µM; with Peritoneal macrophage [7] it was 477 µM. Besides, the Activity result was “Dose-dependent effect” in the data set with Peritoneal macrophage [8] and 18.29 µM with Peritoneal macrophage [8] (record 2).
In the case of `C=CCc1ccc(OC(=O)[C@@H]2CCCN2)c(OC)c1`, the IC50 amounted to 278 µM in the data set with RAW264.7 and 97.4 µM in the data set on Leishmania donovani [3]. In addition, the selectivity ratio in data set [2] came to 2.87; in data set [6], 4.49. The results for the EC50 in the data set on Leishmania donovani [5] and in the data set with Peritoneal macrophage [7] were 72.9 µM and 326 µM, respectively. Also, the Activity result is “Dose-dependent effect” with Peritoneal macrophage [8] and 21.87 µM in the data set with Peritoneal macrophage [8] (record 2).
On to `C=CCc1ccc(OCCCCCC)c(OC)c1`, for which the IC50 in the data set on RAW264.7 amounted to 292 µM; with Leishmania donovani [3] it was 80.3 µM. Also, the selectivity ratio in data set [2] worked out at 3.63; in data set [6], 7.6. Also, the EC50 in the data set on Leishmania donovani [5] amounted to 36.4 µM; with Peritoneal macrophage [7] it was 272 µM. The Activity result was “Dose-dependent effect” in the data set with Peritoneal macrophage [8] and 20.81 µM in the data set on Peritoneal macrophage [8] (record 2).
For the compound `C=CCc1ccc(OC(=O)CCCCCCCCCCC)c(OC)c1`, the values for the IC50 with RAW264.7 and with Leishmania donovani [3] were 529 µM and 56.2 µM, respectively. Also, the selectivity ratio in data set [2] turned out to be 9.36; in [6], 25.9. Further, the figures for the EC50 in the data set with Leishmania donovani [5] and with Peritoneal macrophage [7] were 19.6 µM and 498 µM, respectively. Moreover, the values for the Activity entry in the data set on Peritoneal macrophage [8] and in the data set with Peritoneal macrophage [8] (record 2) were “Dose-dependent effect” and 34.28 µM, respectively.
In the case of `C=CCc1ccc(OC(=O)CCCCCCC)c(OC)c1`, the IC50 in the data set on RAW264.7 came to 580 µM; with Leishmania donovani [3] it was 68.3 µM. Besides, the selectivity ratio in data set [2] came to 8.95; in [6], 11. Besides, the EC50 with Leishmania donovani [5] was found to be 53.3 µM; in the data set on Peritoneal macrophage [7], 565 µM. Moreover, the Activity result in the data set with Peritoneal macrophage [8] is “Dose-dependent effect”; in the data set on Peritoneal macrophage [8] (record 2) it was 24.23 µM.
On to `C=CCc1ccc(OC(=O)CCCCCCCC)c(OC)c1`, for which the IC50 with RAW264.7 worked out at 317 µM; in the data set with Leishmania donovani [3], 93.6 µM. The figures for the selectivity ratio in [2] and in data set [6] were 3.37 and 6.52, respectively. The 50% effective concentration (EC50) in the data set on Leishmania donovani [5] was 52.9 µM; in the data set with Peritoneal macrophage [7], 343 µM. The Activity result in the data set with Peritoneal macrophage [8] is “Dose-dependent effect”; with Peritoneal macrophage [8] (record 2), 27.14 µM.
With `C=CCc1ccc(OC(=O)CCCC)c(OC)c1`, the IC50 with RAW264.7 came out at 368 µM; in the data set with Leishmania donovani [3], 106 µM. Besides, the selectivity ratio in [2] stood at 3.49; in [6] it was 5.41. Besides, the EC50 in the data set on Leishmania donovani [5] was 65.6 µM; in the data set with Peritoneal macrophage [7], 353 µM. In addition, the Activity result in the data set on Peritoneal macrophage [8] was “Dose-dependent effect”; in the data set on Peritoneal macrophage [8] (record 2), 24.39 µM.
Take `C=CCc1ccc(OC(=O)CCCCCC)c(OC)c1`: the figures for the IC50 in the data set on RAW264.7 and in the data set with Leishmania donovani [3] were 512 µM and 103 µM, respectively. The selectivity ratio in [2] worked out at 4.95; in [6], 8.3. For the same compound, the EC50 is 59.6 µM in the data set with Leishmania donovani [5] and 491 µM in the data set on Peritoneal macrophage [7]. Besides, the Activity entry with Peritoneal macrophage [8] was “Dose-dependent effect”; in the data set with Peritoneal macrophage [8] (record 2) it was 25.84 µM.
For the compound `C=CCc1ccc(OC(=O)[C@@H](N)Cc2c[nH]c3ccccc23)c(OC)c1`, the IC50 with RAW264.7 came out at 451 µM; with Leishmania donovani [3], 53 µM. Further, the selectivity ratio was 8.6 in data set [2] and 22.1 in [6]. The EC50 in the data set with Leishmania donovani [5] is 21.6 µM; with Peritoneal macrophage [7], 471 µM. Also, the Activity entry was “Dose-dependent effect” in the data set on Peritoneal macrophage [8] and 28.78 µM in the data set with Peritoneal macrophage [8] (record 2).
`C=CCc1ccc(OC(=O)CC)c(OC)c1`: the half-inhibitory concentration (IC50) stood at 448 µM in the data set with RAW264.7 and 146 µM in the data set with Leishmania donovani [3]. The results for the selectivity ratio in data set [2] and in data set [6] were 3.1 and 3.86, respectively. Also, the EC50 in the data set on Leishmania donovani [5] is 112 µM; in the data set on Peritoneal macrophage [7], 429 µM. Besides, the values for the Activity entry with Peritoneal macrophage [8] and in the data set on Peritoneal macrophage [8] (record 2) were “Dose-dependent effect” and 12.19 µM, respectively.
With `C=CCc1ccc(O)c(OC)c1` [EUGENOL], the Retention_time in data set [1] is 3.133 min. Besides, the half-maximal inhibitory concentration (IC50) in the data set on RAW264.7 was 527 µM; in the data set with Leishmania donovani [3] it was 442 µM. Further, the results for the selectivity ratio in [2] and in data set [6] were 1.19 and 2.75, respectively. Besides, in data set [4], the Ratio is 0.21. In addition, the EC50 came to 173 µM in the data set with Leishmania donovani [5] and 476 µM in the data set on Peritoneal macrophage [7]. Besides, the Activity result with Peritoneal macrophage [8] is “Dose-dependent effect”; in the data set with Peritoneal macrophage [8] (record 2) it was 7.45 µM.
`CCCCCCCCCCCCCCCCOP(=O)([O-])OCC[N+](C)(C)C` [MILTEFOSINE]: the half-maximal inhibitory concentration (IC50) in the data set on RAW264.7 was 44.8 µM; with Leishmania donovani [3] it was 10.4 µM. Also, the selectivity ratio in data set [2] is 4.3; in data set [6], 6.34. The results for the EC50 with Leishmania donovani [5] and with Peritoneal macrophage [7] were 6.4 µM and 40.7 µM, respectively. Also, the Activity entry in the data set on Peritoneal macrophage [8] was “Dose-dependent effect”; in the data set on Peritoneal macrophage [8] (record 2), 26.01 µM.
In the case of `C=CCc1ccc(OCCCCCCCCCCCC)c(OC)c1`, the concentration for half-maximal inhibition (IC50) came to 299 µM in the data set on RAW264.7 and 52.5 µM with Leishmania donovani [3]. For the same compound, the selectivity ratio amounted to 5.76 in data set [2] and 11.4 in data set [6]. Also, the values for the EC50 with Leishmania donovani [5] and in the data set with Peritoneal macrophage [7] were 26 µM and 292 µM, respectively. In addition, the Activity result was “Dose-dependent effect” in the data set on Peritoneal macrophage [8] and 28.12 µM in the data set on Peritoneal macrophage [8] (record 2).
For the compound `C=CCc1ccc(OCCC)c(OC)c1` [PROPYLEUGENOL], the IC50 was 110 µM in the data set with RAW264.7 and 133 µM with Leishmania donovani [3]. Also, the selectivity ratio in data set [2] came to 0.83; in data set [6], 0.71. Besides, the figures for the EC50 with Leishmania donovani [5] and in the data set with Peritoneal macrophage [7] were 156 µM and 111 µM, respectively. Further, the Activity result with Peritoneal macrophage [8] is “Dose-dependent effect”; in the data set with Peritoneal macrophage [8] (record 2) it was 10.64 µM.
Regarding `C=CCc1ccc(OC(=O)c2c[nH]c3ccccc23)c(OC)c1`, the IC50 in the data set on RAW264.7 is 485 µM; in the data set on Leishmania donovani [3], 60.5 µM. Besides, the results for the selectivity ratio in [2] and in data set [6] were 8.11 and 19.7, respectively. Also, the figures for the EC50 in the data set with Leishmania donovani [5] and in the data set with Peritoneal macrophage [7] were 25.3 µM and 496 µM, respectively. Also, the Activity entry was “Dose-dependent effect” with Peritoneal macrophage [8] and 26.24 µM in the data set with Peritoneal macrophage [8] (record 2).
Regarding `C=CCc1ccc(OC(=O)c2cccc([N+](=O)[O-])c2)c(OC)c1`, the IC50 worked out at 255 µM with RAW264.7 and 76.9 µM in the data set with Leishmania donovani [3]. In addition, the selectivity ratio in [2] was 3.33; in [6], 8.36. The EC50 turned out to be 26.2 µM with Leishmania donovani [5] and 218 µM with Peritoneal macrophage [7]. Besides, the Activity entry was “Dose-dependent effect” in the data set with Peritoneal macrophage [8] and 24.58 µM in the data set with Peritoneal macrophage [8] (record 2).
Consider `C=CCc1ccc(OCCCCC)c(OC)c1`, for which the IC50 with RAW264.7 turned out to be 178 µM; in the data set on Leishmania donovani [3], 90.8 µM. For the same compound, the selectivity ratio in [2] came to 1.96; in [6] it was 1.97. Moreover, the EC50 with Leishmania donovani [5] amounted to 83.4 µM; with Peritoneal macrophage [7] it was 164 µM. The Activity entry with Peritoneal macrophage [8] was “Dose-dependent effect”; in the data set on Peritoneal macrophage [8] (record 2), 12.95 µM.
`C=CCc1ccc(OC(=O)c2ccc(F)cc2)c(OC)c1`: the IC50 with RAW264.7 worked out at 364 µM; in the data set on Leishmania donovani [3] it was 61.3 µM. Also, the selectivity ratio in data set [2] stood at 5.93; in [6] it was 5.24. The EC50 was found to be 78.4 µM with Leishmania donovani [5] and 400 µM with Peritoneal macrophage [7]. The figures for the Activity result in the data set with Peritoneal macrophage [8] and with Peritoneal macrophage [8] (record 2) were “Dose-dependent effect” and 14.56 µM, respectively.
